We go through seven molecules from PMC3938834, “De Novo Peptide Design and Experimental Validation of Histone Methyltransferase Inhibitors” (PLoS ONE, 2014).

The test system of one experiment is EZH2. The conditions noted are these: small molecule inhibitor quoted for reference; cited from earlier work. The procedure: To quantitatively measure the inhibition properties of the designed sequences, peptide dose titrations were performed. The concentration of peptide required to suppress 50% of the enzymatic activity (i.e. half-maximal inhibitory concentration, ) and the Hill coefficient (measure of cooperativity of binding) were calculated (Table 2).

Experiment [1] addresses T1, EZH2 (reconstituted recombinant PRC2 containing full length EZH2, SUZ12, EED, RBAP46/48) (Homo sapiens, UniProt Q15910).
T1 construct: reconstituted recombinant PRC2 (containing full length EZH2, SUZ12, EED, RBAP46/48)
Description: radiometric EZH2 HMT enzymatic assay, 384-well Flashplate, 10-point dose titrations. In kind it is biochemical. The procedure: Experiments were performed using radiometric EZH2 enzymatic assays prepared individually or in a semi-automated fashion on a 384-well platform. For the experiments shown in Figures 3.A, 3.C, and 3.D, 4 [drawing 50] g of oligonucleosomes was used per reaction. For the experiments shown in Figures 3.C–D, 3 [drawing 51] g of PRC2 complex were added. For all other HMT assays (Figure 4, Figure 5, and Table 2) the following balanced conditions (at Km for cofactor and substrate) were used. […] The putative peptide inhibitors were tested in single point assays and in 10-point dose titrations. The total volume of the reaction mixture was 30 [drawing 55] L. Reactions were incubated for 1 hour at [drawing 56] C. Reactions terminated by the addition of 10 [drawing 57] L, 5× Laemmli Sample Buffer were loaded onto 15% Tri-Glycine-Polyacrylamide gels and resolved by PAGE. Resolved proteins were transferred to PVDF membrane at 65 V for 2 hours. Membranes were stained with CBB, destained, dried, and exposed to imaging plates for 24 hours. Images were detected using an FLA-7000 bioimaging system (Fujifilm). Reactions terminated by the addition of SAH to a final concentration of 850 [drawing 58] M were transferred to a 384-well Flashplate (Perkin Elmer) and incubated for 90 min. Liquids were aspirated and wells washed with 1×60 [drawing 59] L of wash buffer (50 mM Tris, pH 8.5, 200 mM NaCl, 0.01% NP-40). Detection of incorporated radioactivity in Flashplates was carried out using a Topcount instrument (Perkin Elmer). Potential inhibitory peptides were tested in single point assays and in 10-point dose titrations. Mechanism of Action Enzymatic Assays were performed under the same conditions and using the same protocol. However, in the Mechanism of Action Enzymatic assays the assays were performed with varied enzyme, substrate, or cofactor concentration to identify the mechanism of inhibition.
In order to assess the inhibitory capability of the candidate peptides experimentally, HMT enzymatic assays were conducted. These HMT assays assessed the EZH2-dependent transfer of tritiated methyl-groups from the methyl-donor SAM to reconstituted oligonucleosomes (see Methods for details).
To quantitatively measure the inhibition properties of the designed sequences, peptide dose titrations were performed. The concentration of peptide required to suppress 50% of the enzymatic activity (i.e. half-maximal inhibitory concentration, [drawing 76] ) and the Hill coefficient (measure of cooperativity of binding) were calculated (Table 2).
Understanding the mechanism of action allows us to determine whether the competitive inhibition targeted by the design framework and the input biological constraints has been successful.

Where two headings read alike, the source gives them in different places. No end group written: not given here.

For orientation: IC50 means the point on the concentration scale where inhibition reaches its midpoint.

T1 sequence (Q15910 whole entry): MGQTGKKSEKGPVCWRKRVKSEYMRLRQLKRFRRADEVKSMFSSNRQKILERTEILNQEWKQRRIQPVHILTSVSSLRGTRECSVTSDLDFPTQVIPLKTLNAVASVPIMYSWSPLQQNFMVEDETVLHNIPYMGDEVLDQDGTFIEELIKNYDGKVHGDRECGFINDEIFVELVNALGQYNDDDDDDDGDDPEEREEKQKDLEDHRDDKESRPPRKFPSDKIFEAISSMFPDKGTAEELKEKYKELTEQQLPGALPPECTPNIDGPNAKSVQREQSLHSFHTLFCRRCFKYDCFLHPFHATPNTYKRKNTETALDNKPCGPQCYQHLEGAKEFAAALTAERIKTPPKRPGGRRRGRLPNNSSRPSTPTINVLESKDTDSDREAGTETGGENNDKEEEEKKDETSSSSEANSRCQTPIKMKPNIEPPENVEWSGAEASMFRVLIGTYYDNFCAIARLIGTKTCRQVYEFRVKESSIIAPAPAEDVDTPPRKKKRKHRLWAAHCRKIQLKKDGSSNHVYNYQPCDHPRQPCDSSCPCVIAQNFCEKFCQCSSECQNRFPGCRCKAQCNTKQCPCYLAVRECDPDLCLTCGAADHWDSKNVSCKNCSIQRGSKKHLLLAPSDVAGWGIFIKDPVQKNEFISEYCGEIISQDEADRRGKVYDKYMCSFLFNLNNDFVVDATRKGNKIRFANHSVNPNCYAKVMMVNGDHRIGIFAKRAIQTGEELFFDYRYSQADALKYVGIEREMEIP
T1 sequence (Q15022 whole entry partner): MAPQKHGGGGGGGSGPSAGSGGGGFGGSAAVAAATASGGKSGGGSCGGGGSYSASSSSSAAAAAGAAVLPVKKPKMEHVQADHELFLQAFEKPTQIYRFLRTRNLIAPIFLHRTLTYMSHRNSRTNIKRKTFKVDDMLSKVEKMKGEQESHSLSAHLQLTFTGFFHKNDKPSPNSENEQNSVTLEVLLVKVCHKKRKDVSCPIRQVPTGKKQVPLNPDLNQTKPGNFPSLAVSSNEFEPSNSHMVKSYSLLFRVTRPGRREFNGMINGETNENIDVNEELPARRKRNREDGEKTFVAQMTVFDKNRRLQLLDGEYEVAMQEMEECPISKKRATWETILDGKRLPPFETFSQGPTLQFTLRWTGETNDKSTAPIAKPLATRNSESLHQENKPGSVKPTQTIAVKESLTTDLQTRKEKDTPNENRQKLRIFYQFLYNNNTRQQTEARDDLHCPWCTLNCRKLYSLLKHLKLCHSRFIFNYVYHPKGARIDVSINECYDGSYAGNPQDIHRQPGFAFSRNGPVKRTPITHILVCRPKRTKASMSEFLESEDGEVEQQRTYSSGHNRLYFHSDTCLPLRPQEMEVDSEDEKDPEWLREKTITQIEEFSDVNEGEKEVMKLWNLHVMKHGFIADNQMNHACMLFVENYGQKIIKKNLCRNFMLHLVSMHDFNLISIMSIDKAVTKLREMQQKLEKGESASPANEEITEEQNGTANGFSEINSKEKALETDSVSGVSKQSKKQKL
T1 sequence (O75530 whole entry partner): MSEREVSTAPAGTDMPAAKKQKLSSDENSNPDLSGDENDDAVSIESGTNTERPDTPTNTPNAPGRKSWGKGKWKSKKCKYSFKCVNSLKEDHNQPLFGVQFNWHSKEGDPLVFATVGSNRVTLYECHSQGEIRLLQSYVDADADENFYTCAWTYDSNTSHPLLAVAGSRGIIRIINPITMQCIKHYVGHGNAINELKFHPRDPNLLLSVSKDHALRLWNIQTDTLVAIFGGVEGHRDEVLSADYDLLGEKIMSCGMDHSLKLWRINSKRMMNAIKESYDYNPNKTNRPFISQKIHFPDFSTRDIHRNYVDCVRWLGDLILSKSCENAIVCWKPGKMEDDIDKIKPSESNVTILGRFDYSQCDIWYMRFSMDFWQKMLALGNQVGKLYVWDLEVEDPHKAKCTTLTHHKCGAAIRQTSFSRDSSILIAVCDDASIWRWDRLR
T1 sequence (Q09028 whole entry partner): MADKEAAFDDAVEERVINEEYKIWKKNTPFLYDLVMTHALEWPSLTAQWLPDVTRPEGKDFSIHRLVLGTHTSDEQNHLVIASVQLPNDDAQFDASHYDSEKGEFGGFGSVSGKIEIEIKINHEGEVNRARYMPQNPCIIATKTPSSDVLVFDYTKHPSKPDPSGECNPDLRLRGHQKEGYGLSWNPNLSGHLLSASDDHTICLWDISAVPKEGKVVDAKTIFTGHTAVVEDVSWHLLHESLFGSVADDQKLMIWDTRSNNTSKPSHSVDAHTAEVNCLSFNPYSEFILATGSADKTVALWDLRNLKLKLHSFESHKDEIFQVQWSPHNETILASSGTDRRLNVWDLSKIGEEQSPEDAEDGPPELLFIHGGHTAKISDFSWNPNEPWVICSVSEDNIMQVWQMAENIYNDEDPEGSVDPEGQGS

On to `CCC(CC)n1ccc2c(C(=O)NCc3c(C)cc(C)[nH]c3=O)cc(C#N)cc21` [EI1], for which, in the experiment with EZH2, the IC50 was roughly 0.015 µM. Turning to GKAPRKQLANRKWWKNYPRDG [SQ040], the IC50 in experiment [1] (read-out: IC50) stood at 41 ± 1.19 µM. For GKAPRKQLAPKAATKNARATS [SQ026], in experiment [1] (read-out: IC50), the IC50 was found to be 19.6 ± 1.12 µM.

On to GKAPRKQLARKNWWKNYPRDG [SQ043], for which, in experiment [1] (read-out: IC50), the IC50 worked out at 39.7 ± 1.17 µM. Turning to GKAPRKQLARRKWWFNYPQNG [SQ037], the IC50 is 8.05 µM in experiment [1] (Figure 5, high throughput radiometric assay, SQ037 versus native and mutated peptides, value printed in the picture without unit, read-out: IC50); 13.6 ± 1.24 µM in experiment [1] (read-out: IC50). For the molecule GKAPRKQLASAKKAAATPRTG [SQ010], in experiment [1] (read-out: IC50), the IC50 was found to be 54.9 ± 1.26 µM. As to GKAPRKQLASKAARAATPKTG [SQ020], the IC50 in experiment [1] amounted to 34.2 ± 1.46 µM.
